The values below come from US6869912B2, “Biocidal composition” (priority 2000, dated 2005).

The nature of data set [1]: Particle size analysis using a Hiac/Royco 8000A Laser Extinction Counter. As to conditions: particles formed in Example 1. The data set is classed as physicochemical. The text has this: Particle size analysis, using a Hiac/Royco […] Laser Extinction Counter of a typical batch of the biocidal preparation gave;
A short description of data set [2]: Settling of copper (II) oxalate particles through water in a measuring cylinder. It counts as physicochemical. The note with it: majority of particles, distributed on the surface of a measuring cylinder. The protocol:
A portion of a biocidal composition prepared as described above was distributed on the surface of a measuring cylinder. […] After standing for approximately four hours, samples were taken by pipette from various portions of the water body. The concentration of copper (II) ions in the water body was measured, by way of atomic absorption spectrophotometry, at between 5 and 8 parts per million.

Data set [3] relates to plants and animals. The note with it: cited from earlier work.

For the compound `O=C([O-])C(=O)[O-].[Cu+2]` [copper (II) oxalate], the Predominant particle size result in data set [1] was “below 10 μm”. Besides, in data set [2], the “Settling rate of particles” value is 2-5 metres per hour.
As to `[Cu+2]` [copper (II) ions], in data set [3] (over extended periods of time), the “Concentration not toxic to almost all plants and animals” value was “up to 2 parts per million”. Also, the “Level tolerated by most plants and animals” value in data set [3] (over relatively short periods of time) is 10 parts per million.
